Results reported in patent publication US7566550B2, “Screening method for developing drugs against pathogenic microbes having two-component system” (priority 2002, dated 2009).
Values joined by “and” are separate entries in the source; they are usually repeats but may differ in a detail not shown here. Identical values can stand only once. “Also recorded” adds a separate entry of the source.

Key:
[1] = molecular target: T1, DevS201 (Mycobacterium tuberculosis, UniProt P9WGK3); test: High-throughput (96-well filter retention) autophosphorylation of sensor kinase DevS201 with [γ32P]ATP; assay type: biochemical, M. tuberculosis; details: for IC50: high-throughput format, concentration course 2.5 mM to 1 μM, read-out: concentration required to cause 50% inhibition (IC50) of the autophosphorylation of DevS201
T1 sequence (P9WGK3 378-578 limits assumed): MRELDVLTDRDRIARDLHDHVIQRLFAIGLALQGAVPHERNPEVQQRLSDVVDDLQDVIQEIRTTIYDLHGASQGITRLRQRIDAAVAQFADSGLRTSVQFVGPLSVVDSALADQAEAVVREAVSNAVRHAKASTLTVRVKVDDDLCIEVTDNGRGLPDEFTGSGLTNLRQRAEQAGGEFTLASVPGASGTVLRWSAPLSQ

[2] = molecular target: T2, Rv2027194 (Mycobacterium tuberculosis, UniProt P9WGK1); test: High-throughput (96-well filter retention) autophosphorylation of sensor kinase Rv2027194 with [γ32P]ATP; assay type: biochemical, M. tuberculosis; details: high-throughput format, concentration course 2.5 mM to 1 μM; read-out: concentration required to cause 50% inhibition (IC50) of the autophosphorylation of Rv2027194
T2 sequence (P9WGK1 380-573 limits assumed): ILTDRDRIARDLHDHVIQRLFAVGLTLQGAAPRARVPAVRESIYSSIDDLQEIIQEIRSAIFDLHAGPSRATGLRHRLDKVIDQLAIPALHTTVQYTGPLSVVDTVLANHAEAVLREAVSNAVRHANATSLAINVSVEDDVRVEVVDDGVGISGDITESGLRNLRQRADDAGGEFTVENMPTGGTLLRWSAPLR

[3] = molecular target: T1, DevS201; test: SDS-PAGE/autoradiography assay of DevS201 autophosphorylation in presence of candidate compounds; assay type: biochemical, M. tuberculosis; details: 1 mM compound, 12 μM DevS201, SDS-PAGE format
Experimental: FIG. 16. Inhibition of autophosphorylation of sensor kinase DevS201 by various candidate compounds. Autoradiogram of SDS-PAGE of autophosphorylation reaction products. Lane 1, levamisole HCl; lane 2, folic acid; lane 3, gly-gly-glycine; lane 4, EGTA; lane 5, bromo-phenol blue; lane 6, HABA; lane 7, ethidium bromide; lane 8, anti-DevS antibody (1 μl); lane 9, no compound. Briefly, all the mentioned compounds (1 mM final concentration) were added to 12 μM of DevS201 in reaction buffer without ATP and incubated at RT for 30 minutes after which the reaction was initiated by addition of [γ^32P]ATP and cold ATP. The reaction contents were then incubated at 25° C. for 60 minutes and were subsequently analyzed on gel as mentioned earlier.
Utilizing this knowledge a few compounds were tested for their inhibitory activity on the autophosphorylation potential of DevS sensor kinase. These included levamisole, folic acid, glycyl glycyl glycine, ethidium bromide, bromo phenol blue, 2-4-hydroxyphenylazo benzoic acid (HABA), 2-mercapto benzimidazole etc. […]
To elaborate, 12 μM of DevS201 was incubated with the aforementioned compounds in the phosphorylation reaction buffer (50 mM Tris.HCl, pH 8.0, 50 mM KCl and 25 mM MgCl2) for 30 minutes at room temperature. […] Subsequently, the reactions were terminated and analyzed on SDS-PAGE as mentioned previously.

[4] = molecular target: T1, DevS201; test: Coomassie-stained SDS-PAGE check for aggregation of sensor kinase DevS201; design: species or system M. tuberculosis; details: coomassie-stained SDS-PAGE of autophosphorylation reaction
[5] = molecular target: T2, Rv2027194; test: Coomassie-stained SDS-PAGE check for aggregation of sensor kinase Rv2027194; design: species or system M. tuberculosis; details: coomassie-stained SDS-PAGE of autophosphorylation reaction
[6] = test system: tubercle bacilli; details: replicating, static and multidrug-resistant bacilli; cited from earlier work

SMILES | IC50 [1] | inhibition at 2500 µM ([1]; in the presence of 2.5 mM, read-out: inhibition of DevS) [%] | IC50 [2] | inhibition of the autophosphorylation of DevS201 (autoradiogram) [3] | aggregation of sensor kinase DevS201 in presence of compound [4] | aggregation of sensor kinase Rv2027194 in presence of compound [5] | activity against tubercle bacilli [6]
CC[n+]1c(-c2ccccc2)c2cc(N)ccc2c2ccc(N)cc21.[Br-] [EtBr, Phenanthridinium, 3,8-diamino-5-ethyl-6-phenyl-, bromide] | > 2500 µM | 35 | 600 to 700 µM and 500 to 1000 µM | visible inhibition | no aggregation; also recorded: did not cause aggregation | no aggregation; also recorded: did not cause aggregation | 
O=[N+]([O-])c1cn2c(n1)OC[C@@H](OCc1ccc(OC(F)(F)F)cc1)C2 [PA-824] |  |  |  |  |  |  | activity against both replicating and static tubercle bacilli as well as multidrug-resistant bacilli
O=S1(=O)OC(c2cc(Br)c(O)c(Br)c2)(c2cc(Br)c(O)c(Br)c2)c2ccccc21 [BPB, 3′,3″,5′,5″-Tetrabromophenol tetrabromosulfonapthalene] | 1500 to 1700 µM |  | 1500 to 1700 µM | visible inhibition | no aggregation; also recorded: did not cause aggregation | no aggregation; also recorded: did not cause aggregation | 
Sc1nc2ccccc2[nH]1 [2-MBI, 2-mercapto benzimidazole] | 400 to 600 µM and 300 to 800 µM |  | 400 to 600 µM and 300 to 800 µM |  | absence of aggregate | absence of aggregate | 
